Experimental data taken from PubChem BioAssay AID1259407 (Chemical Carcinogenesis Research Information System (CCRIS), 2018).
Activity calls are given as the source filed them. How the calls were made is not given here.

Test system: CCRIS mutagenicity, Ames/micronucleus/aberration tests
Assay: CCRIS mutagenicity studies
Conditions: Test System: AMES SALMONELLA TYPHIMURIUM

Measured: mutagenic call

COC(=O)CCC(=O)OC
inactive: Strain/Indicator: TA97, Metabolic Activation: HAMSTER, LIVER, S-9, AROCLOR 1254 (10 OR 30%), Method: PREINCUBATION inactive; negative | Strain/Indicator: TA97, Metabolic Activation: NONE, Method: PREINCUBATION inactive; negative | Strain/Indicator: TA97, Metabolic Activation: RAT, LIVER, S-9, AROCLOR 1254 (10 OR 30%), Method: PREINCUBATION inactive; negative | Strain/Indicator: TA98, Metabolic Activation: HAMSTER, LIVER, S-9, AROCLOR 1254 (10 OR 30%), Method: PREINCUBATION inactive; negative | Strain/Indicator: TA98, Metabolic Activation: NONE, Method: PREINCUBATION inactive; negative | Strain/Indicator: TA98, Metabolic Activation: NONE, Method: STANDARD PLATE inactive; negative | Strain/Indicator: TA98, Metabolic Activation: RAT, LIVER, S-9, AROCLOR 1254 (10 OR 30%), Method: PREINCUBATION inactive; negative | Strain/Indicator: TA98, Metabolic Activation: RAT, LIVER, S-9, AROCLOR 1254, Method: STANDARD PLATE inactive; negative | Strain/Indicator: TA100, Metabolic Activation: HAMSTER, LIVER, S-9, AROCLOR 1254 (10 OR 30%), Method: PREINCUBATION inactive; negative | Strain/Indicator: TA100, Metabolic Activation: NONE, Method: PREINCUBATION inactive; negative | Strain/Indicator: TA100, Metabolic Activation: NONE, Method: STANDARD PLATE inactive; negative | Strain/Indicator: TA100, Metabolic Activation: RAT, LIVER, S-9, AROCLOR 1254 (10 OR 30%), Method: PREINCUBATION inactive; negative | Strain/Indicator: TA100, Metabolic Activation: RAT, LIVER, S-9, AROCLOR 1254, Method: STANDARD PLATE inactive; negative | Strain/Indicator: TA1535, Metabolic Activation: HAMSTER, LIVER, S-9, AROCLOR 1254 (10 OR 30%), Method: PREINCUBATION inactive; negative | Strain/Indicator: TA1535, Metabolic Activation: NONE, Method: PREINCUBATION inactive; negative | Strain/Indicator: TA1535, Metabolic Activation: NONE, Method: STANDARD PLATE inactive; negative | Strain/Indicator: TA1535, Metabolic Activation: RAT, LIVER, S-9, AROCLOR 1254 (10 OR 30%), Method: PREINCUBATION inactive; negative | Strain/Indicator: TA1535, Metabolic Activation: RAT, LIVER, S-9, AROCLOR 1254, Method: STANDARD PLATE inactive; negative | Strain/Indicator: TA1537, Metabolic Activation: NONE, Method: STANDARD PLATE inactive; negative | Strain/Indicator: TA1537, Metabolic Activation: RAT, LIVER, S-9, AROCLOR 1254, Method: STANDARD PLATE inactive; negative
